The values below come from patent US7569550B2, “14 and 15 membered ring compounds” (Glaxo Group Limited, priority 2003, dated 2009).

Holding throughout (test): MIC, standard broth dilution method in microtitre
Type in all cases: cell-based

For one experiment, the system named is E. faecalis ATCC 29212. Conditions: Enterococcus faecalis, ATCC29212. The procedure: (§1) Using a standard broth dilution method in microtitre, compounds were tested for antibacterial activity. The compounds in the above examples gave minimum inhibitory concentrations (MICs) less than 1 microgram per millilitre against erythromycin-sensitive and erythromycin-resistant strains of Streptococcus pneumoniae and Streptococcus pyogenes.
(§2) In addition, the MIC (μg/ml) of test compounds against various organisms was determined including:
(§3) S. aureus Smith ATCC 13709, S. pneumoniae SP030, S. pyogenes 3565, E. faecalis ATCC 29212, H. influenzae ATCC 49247, M. catarrhalis ATCC 23246.

The next experiment relates to H. influenzae ATCC 49247. Conditions: Haemophilus influenzae, ATCC49247; H. influenzae ATCC 49247; read-out: MIC. The procedure:
as §1, §2, §3

The test system of experiment [1] is M. catarrhalis ATCC 23246. The settings on record: Moraxella catarrhalis, ATCC23246. How it is done: as §1, §2, §3
For experiment [2], the system named is S. aureus Smith ATCC 13709. Conditions: Staphylococcus aureus, ATCC13709. The procedure:
as §1, §2, §3

The subject of the next experiment is S. pneumoniae SP030. The settings on record: Streptococcus pneumoniae. The procedure: as §1, §2, §3
A further experiment relates to S. pyogenes 3565. Conditions: Streptococcus pyogenes. How it is done: as §1, §2, §3
Experiment [3] deals with erythromycin resistant strains of Streptococcus pneumoniae. How it is done:
as §1

Experiment [4] relates to erythromycin resistant strains of Streptococcus pyogenes. How it is done:
as §1

Counter-ions that a name gives are not always drawn.

Regarding `CC[C@H]1OC(=O)[C@H](C)[C@@H](O[C@H]2C[C@@](C)(OC)[C@@H](OCCCN(C)CCNc3nc4c(cc3F)c(=O)c(C(=O)O)cn4CC)[C@H](C)O2)[C@H](C)[C@@H](O[C@@H]2O[C@H](C)C[C@H](N(C)C)[C@H]2O)[C@](C)(OC)C[C@@H](C)C(=O)[C@@H](C)[C@H]2NC(=O)O[C@@]21C` [Example 27, 4″-O-{3-[[2-(3-Carboxy-1-ethyl-6-fluoro-4-oxo-1,4-dihydro-[1,8]naphthyridin-7-ylamino)-ethyl]-methylamino]-propyl}-6-O-methyl-11-desoxy-11-(R)-amino-erythromycin A 11,12-carbamate formate], the MIC is ≤ 1 µg/mL against E. faecalis ATCC 29212; ≤ 4 µg/mL with H. influenzae ATCC 49247; ≤ 4 µg/mL in experiment [1]; ≤ 1 µg/mL in experiment [2]; ≤ 1 µg/mL against S. pneumoniae SP030; ≤ 1 µg/mL against S. pyogenes 3565. For the same compound, the MIC in experiment [3] and in experiment [4] was ≤ 1 µg/mL each time.

As to `CC[C@H]1OC(=O)[C@H](C)[C@@H](O[C@H]2C[C@@](C)(OC)[C@@H](OCCCN(C)CCOc3cc4c5c(c3)c(=O)c(C(=O)O)cn5CCC4)[C@H](C)O2)[C@H](C)[C@@H](O[C@@H]2O[C@H](C)C[C@H](N(C)C)[C@H]2O)[C@](C)(OC)C[C@@H](C)C(=O)[C@@H](C)[C@H]2NC(=O)O[C@@]21C` [Example 28, 4″-O-{3-[[2-(2-Carboxy-1-oxo-6,7-dihydro-1H,5H-pyrido[3,2,1-ij]quinolin-9-yloxy)-ethyl]-methylamino]-propyl}-6-O-methyl-11-desoxy-11-(R)-amino-erythromycin A 11,12-carbamate formate], the MIC against E. faecalis ATCC 29212 is ≤ 1 µg/mL; in the experiment on H. influenzae ATCC 49247, ≤ 4 µg/mL; in experiment [1], ≤ 4 µg/mL; in experiment [2] it was ≤ 1 µg/mL; against S. pneumoniae SP030, ≤ 1 µg/mL; with S. pyogenes 3565, ≤ 1 µg/mL. Also, the MIC in experiment [3] and in experiment [4] was ≤ 1 µg/mL throughout.

Take `CC[C@@H]1OC(=O)[C@H](C)[C@H](O[C@@H]2C[C@](C)(OC)[C@H](OCCCN(C)CCCc3ccc4c(c3)c(=O)c(C(=O)O)cn4CC)[C@H](C)O2)[C@@H](C)[C@H](O[C@H]2O[C@@H](C)C[C@@H](N(C)C)[C@H]2O)[C@](C)(OC)C[C@H](C)C(=O)[C@H](C)[C@H]2NC(=O)O[C@@]12C` [Example 29, 4″-O-{3-[[3-(3-Carboxy-1-ethyl-4-oxo-1,4-dihydro-quinolin-6-yl)-propyl]-methylamino]-propyl}-6-O-methyl-11-desoxy-11-(R)-amino-erythromycin A 11,12-carbamate formate]: the MIC against E. faecalis ATCC 29212 is ≤ 1 µg/mL; in the experiment with H. influenzae ATCC 49247, ≤ 4 µg/mL; in experiment [1] it was ≤ 4 µg/mL; in experiment [2], ≤ 1 µg/mL; with S. pneumoniae SP030, ≤ 1 µg/mL; against S. pyogenes 3565, ≤ 1 µg/mL. Moreover, the MIC in experiment [3] and in experiment [4] was ≤ 1 µg/mL each time.

Turning to `CC[C@H]1OC(=O)[C@H](C)[C@@H](O[C@H]2C[C@@](C)(OC)[C@@H](OCCCN(C)CCCc3cnc4c(c3)c(=O)c(C(=O)O)cn4CC)[C@H](C)O2)[C@H](C)[C@@H](O[C@@H]2O[C@H](C)C[C@H](N(C)C)[C@H]2O)[C@](C)(OC)C[C@@H](C)C(=O)[C@@H](C)[C@H]2NC(=O)O[C@@]21C` [Example 30, 4″-O-{3-[[3-(3-Carboxy-1-ethyl-4-oxo-1,4-dihydro-6-[1,8]naphthryidinyl)-propyl]-methylamino]-propyl}-6-O-methyl-11-desoxy-11-(R)-amino-erythromycin A 11,12-carbamate], the MIC with E. faecalis ATCC 29212 was ≤ 1 µg/mL; in the experiment on H. influenzae ATCC 49247, ≤ 4 µg/mL; in experiment [1] it was ≤ 4 µg/mL; in experiment [2], ≤ 1 µg/mL; against S. pneumoniae SP030 it was ≤ 1 µg/mL; against S. pyogenes 3565 it was ≤ 1 µg/mL. Also, the MIC in experiment [3] and in experiment [4] was ≤ 1 µg/mL in each case.

As to `CC[C@H]1OC(=O)[C@H](C)[C@@H](O[C@H]2C[C@@](C)(OC)[C@@H](OCCCN(C)CCCc3cc4c5c(c3)c(=O)c(C(=O)O)cn5CCC4)[C@H](C)O2)[C@H](C)[C@@H](O[C@@H]2O[C@H](C)C[C@H](N(C)C)[C@H]2O)[C@](C)(OC)C[C@@H](C)C(=O)[C@@H](C)[C@H]2NC(=O)O[C@@]21C` [Example 31, 4″-O-{3-[[3-(2-Carboxy-1-oxo-6,7-dihydro-1H,5H-pyrido[3,2,1-ij]quinolin-9-yl)-propyl]-methylamino]-propyl}-6-O-methyl-11-desoxy-11-(R)-amino-erythromycin A 11,12-carbamate], the MIC is ≤ 1 µg/mL against E. faecalis ATCC 29212; ≤ 4 µg/mL in the experiment with H. influenzae ATCC 49247; ≤ 4 µg/mL in experiment [1]; ≤ 1 µg/mL in experiment [2]; ≤ 1 µg/mL in the experiment on S. pneumoniae SP030; ≤ 1 µg/mL in the experiment on S. pyogenes 3565. Also, the MIC in experiment [3] and in experiment [4] was ≤ 1 µg/mL in each case.

With `CC[C@H]1OC(=O)[C@H](C)[C@@H](O[C@H]2C[C@@](C)(OC)[C@@H](OCCCN(C)CCSc3ccc4c(c3)c(=O)c(C(=O)O)cn4CC)[C@H](C)O2)[C@H](C)[C@@H](O[C@@H]2O[C@H](C)C[C@H](N(C)C)[C@H]2O)[C@](C)(OC)C[C@@H](C)C(=O)[C@@H](C)[C@H]2NC(=O)O[C@@]21C` [Example 32, 4″-O-{3-[[2-(3-Carboxy-1-ethyl-4-oxo-1,4-dihydro-quinolin-6-ylsulfanyl)-ethyl]-methylamino]-propyl}-6-O-methyl-11-desoxy-11-(R)-amino-erythromycin A 11,12-carbamate], the MIC against E. faecalis ATCC 29212 was ≤ 1 µg/mL; with H. influenzae ATCC 49247, ≤ 4 µg/mL; in experiment [1] it was ≤ 4 µg/mL; in experiment [2] it was ≤ 1 µg/mL; with S. pneumoniae SP030 it was ≤ 1 µg/mL; against S. pyogenes 3565, ≤ 1 µg/mL. Also, the MIC in experiment [3] and in experiment [4] was ≤ 1 µg/mL each time.
